Source: patent publication US20260297060A1, “COMPOUNDS FOR THE DEGRADATION OF MUTANT BRAF” (C4 THERAPEUTICS, INC., priority 2023, published 2026)
Like-named read-outs stand apart in the source and are kept apart here. Blank lines part the entries; values can stand above or below the compound they belong to.

What was measured:
[1] = biological target: T1, BRAF V600E (Homo sapiens, UniProt P15056+Q96SW2, V600E); assay: BRAF V600E HiBiT Degradation Assay; assay type: cell-based; settings: for DC50: A375.10 cells, BRAF V600E, 2 hours; for Emax: read-out: HiBiT-Degradation A375.10 BRAF 2 hours Emax, A375.10 cells, BRAF V600E, 2 hours, residual protein remaining
T1 construct: knock-in of the HiBiT tag to the endogenous BRAF V600E locus; host or cells: A375.10 (A375 clonal line, CRISPR HiBiT knock-in at the endogenous BRAF V600E locus)
Method in brief: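 Endogenous HiBiT knock-in on BRAF V600E in A375 cells (clone A375.10); 11-point half-log series, top 10 μM, 2, 6 or 24 h at 37° C. Lytic HiBiT luminescence, background-subtracted, normalized to DMSO; 4-parameter fit gives DC50, Emax (residual protein) and IP (inflection point).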

[2] = system: A375 human melanoma xenografts; assay: Example 6 efficacy study in A375 human melanoma xenografts (tumor volume, T/C, TGI); assay type: in vivo, BALB/c nude mice; settings: p.o., QD × 21 days; for T/C / TGI / Tumor Size on PG-D21: PG-D21; for Tumor Size on PG-D21 / Tumor volume: Mean ± SEM
Description: For efficacy study, compounds were tested in the A375 human melanoma xenografts. Known BRAF inhibitors encorafenib, and dabrafenib were used as positive controls. Encorafenib and dabrafenib were administered to BALB/c nude mice bearing A375 tumors on PG-D1 and dosed PO daily (QD) for 3 weeks. Encorafenib was dosed at 35 mg/kg. Dabrafenib was dosed at 100 mg/kg. Compound 83, Compound 93, Compound 70, and Compound 54 were administered to BALB/c nude mice bearing A375 tumors on PG-DO and dosed PO twice per day (BID) for 3 weeks. Compound 83, Compound 93, Compound 70, and Compound 54 were dosed at 10 mg/kg.
The A375 tumor cells were maintained in vitro in DMEM medium supplemented with […] and 1% Penicillin-Streptomycin at 37° C. in an atmosphere of 5% CO2 in air. The tumor cells were routinely subcultured twice weekly. The cells growing in an exponential growth phase were harvested and counted for tumor inoculation.
Each mouse was inoculated subcutaneously at the right flank with A375 tumor cells (5×10^6) in 0.2 mL of PBS with Matrigel (PBS: Matrigel=1:1) supplemented for tumor development. Animals were grouped for the treatment on day 16 after tumor inoculation when the average tumor volume reached 221 mm^3 for efficacy study and 386 mm^3 for PKPD study. The test articles administration and the animal numbers in each group are shown in the above experimental Tables.
Prior to the onset of drug treatment, mice were measured for tumor size in two dimensions using a caliper, and the tumor volume (mm^3) was calculated using formula V=0.5 a×b^2 where a and b are the long and short diameters of the tumor in mm, respectively. Mice were randomized into different treatment groups based on the tumor volume.
The major endpoint was to see if the tumor growth could be delayed or mice could be cured. The tumor size was then used for calculations of T/C value. The T/C value (in percent) is an indication of antitumor effectiveness; T and C are the mean volumes of the treated and control groups, respectively on specified day.
TGI was calculated for each group using the formula: TGI (%)=[1−(Ti−T0)/(Ci−C0)]×100; Ti is the average tumor volume of a treatment group on a given day, T0 is the average tumor volume of the treatment group on the day of treatment start, Ci is the average tumor volume of the vehicle control group on the same day with Ti, and C0 is the average tumor volume of the vehicle group on the day of treatment start.

[3] = read-out: HiBiT-Degradation A375.10 BRAF 2 hours DC50
[4] = read-out: HiBiT-Degradation A375.10 BRAF 2 hours IP, inflection point

T1 sequence (P15056 whole entry V600E): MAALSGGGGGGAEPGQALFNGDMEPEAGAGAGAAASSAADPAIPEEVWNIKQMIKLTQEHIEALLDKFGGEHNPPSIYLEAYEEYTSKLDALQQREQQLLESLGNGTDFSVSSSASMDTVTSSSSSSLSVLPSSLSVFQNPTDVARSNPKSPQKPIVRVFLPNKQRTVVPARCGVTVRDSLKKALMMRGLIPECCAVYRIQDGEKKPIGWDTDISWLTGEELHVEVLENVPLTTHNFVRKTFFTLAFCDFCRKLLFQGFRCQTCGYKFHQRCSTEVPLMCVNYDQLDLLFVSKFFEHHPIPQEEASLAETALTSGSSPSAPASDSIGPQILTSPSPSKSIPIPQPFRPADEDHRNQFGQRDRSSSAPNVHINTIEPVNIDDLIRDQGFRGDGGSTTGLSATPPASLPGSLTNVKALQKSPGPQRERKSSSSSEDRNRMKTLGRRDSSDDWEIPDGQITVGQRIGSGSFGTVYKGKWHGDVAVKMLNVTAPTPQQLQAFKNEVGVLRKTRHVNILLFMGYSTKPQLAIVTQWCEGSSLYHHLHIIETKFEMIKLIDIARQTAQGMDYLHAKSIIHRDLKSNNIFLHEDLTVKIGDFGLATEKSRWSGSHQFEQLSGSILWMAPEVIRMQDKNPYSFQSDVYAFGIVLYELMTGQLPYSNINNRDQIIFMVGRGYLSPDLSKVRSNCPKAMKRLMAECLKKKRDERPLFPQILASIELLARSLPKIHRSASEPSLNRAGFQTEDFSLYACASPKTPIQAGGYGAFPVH
T1 sequence (Q96SW2 whole entry): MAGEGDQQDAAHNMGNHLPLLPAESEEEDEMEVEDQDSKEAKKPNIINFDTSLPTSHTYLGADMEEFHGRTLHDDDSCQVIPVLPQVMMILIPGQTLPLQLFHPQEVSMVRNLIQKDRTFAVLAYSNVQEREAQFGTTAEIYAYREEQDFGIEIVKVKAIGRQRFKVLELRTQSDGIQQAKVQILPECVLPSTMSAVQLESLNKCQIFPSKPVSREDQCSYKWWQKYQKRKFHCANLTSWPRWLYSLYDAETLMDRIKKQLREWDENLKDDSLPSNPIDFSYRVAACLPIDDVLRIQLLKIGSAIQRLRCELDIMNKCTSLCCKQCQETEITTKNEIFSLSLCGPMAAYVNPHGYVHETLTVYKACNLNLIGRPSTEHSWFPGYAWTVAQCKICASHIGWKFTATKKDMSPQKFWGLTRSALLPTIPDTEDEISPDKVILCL
T1 sequence (Q16531 whole entry partner): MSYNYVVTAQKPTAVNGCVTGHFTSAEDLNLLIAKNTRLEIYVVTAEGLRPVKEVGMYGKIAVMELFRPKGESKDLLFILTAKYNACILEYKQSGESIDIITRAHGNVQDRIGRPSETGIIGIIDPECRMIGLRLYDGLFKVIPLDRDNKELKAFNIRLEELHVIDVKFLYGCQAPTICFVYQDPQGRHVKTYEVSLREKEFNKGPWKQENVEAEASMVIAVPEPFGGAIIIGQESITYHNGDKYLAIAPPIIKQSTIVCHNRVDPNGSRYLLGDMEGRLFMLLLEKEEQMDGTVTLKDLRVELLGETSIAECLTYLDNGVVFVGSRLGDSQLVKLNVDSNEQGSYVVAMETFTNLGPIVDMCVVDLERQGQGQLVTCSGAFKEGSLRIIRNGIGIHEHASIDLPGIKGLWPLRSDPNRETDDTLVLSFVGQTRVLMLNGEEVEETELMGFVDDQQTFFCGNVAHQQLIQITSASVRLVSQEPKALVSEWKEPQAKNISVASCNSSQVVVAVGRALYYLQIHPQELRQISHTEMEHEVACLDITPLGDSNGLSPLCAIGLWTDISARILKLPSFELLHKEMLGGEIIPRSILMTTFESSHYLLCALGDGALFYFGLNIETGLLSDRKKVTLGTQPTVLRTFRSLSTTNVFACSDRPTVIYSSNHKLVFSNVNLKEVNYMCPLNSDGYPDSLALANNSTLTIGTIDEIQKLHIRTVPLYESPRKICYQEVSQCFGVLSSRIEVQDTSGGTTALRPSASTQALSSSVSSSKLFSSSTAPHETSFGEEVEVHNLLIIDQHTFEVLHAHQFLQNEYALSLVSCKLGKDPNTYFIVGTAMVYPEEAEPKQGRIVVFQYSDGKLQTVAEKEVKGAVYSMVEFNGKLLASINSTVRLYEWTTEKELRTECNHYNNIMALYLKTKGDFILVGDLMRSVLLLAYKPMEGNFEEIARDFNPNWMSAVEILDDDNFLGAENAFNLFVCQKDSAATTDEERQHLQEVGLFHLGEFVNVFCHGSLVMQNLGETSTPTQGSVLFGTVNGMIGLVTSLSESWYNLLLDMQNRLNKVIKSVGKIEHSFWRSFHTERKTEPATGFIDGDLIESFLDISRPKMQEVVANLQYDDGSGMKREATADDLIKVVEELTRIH

DC50 [1, 3]: < 1000 nM
Emax [1]: < 50%
DC50 [1, 4]: < 1000 nM
SMILES: CO[C@@H]1CCN(S(=O)(=O)Nc2ccc(F)c(Oc3ccc4ncn(C5CC6(CCN(C7CC8(C7)CN(c7cc9c(cc7F)c(N7CCC(=O)NC7=O)nn9C)C8)CC6)C5)c(=O)c4c3)c2C#N)C1 (stereo partly drawn) [Compound 269, (3R)-N-[2-cyano-3-[3-[7-[2-[3-(2,4-dioxohexahydropyrimidin-1-yl)-5-fluoro-1-methyl-indazol-6-yl]-2-azaspiro[3.3]heptan-6-yl]-7-azaspiro[3.5]nonan-2-yl]-4-oxo-quinazolin-6-yl]oxy-4-fluoro-phenyl]-3-methoxy-pyrrolidine-1-sulfonamide]

DC50 [1, 3]: < 1000 nM
Emax [1]: < 50%
DC50 [1, 4]: < 1000 nM
SMILES: COC1CN(S(=O)(=O)Nc2ccc(F)c(Oc3ccc4ncn(C5CC6(CCN(C7CC8(C7)CN(c7cc9c(cc7F)c(N7CCC(=O)NC7=O)nn9C)C8)CC6)C5)c(=O)c4c3)c2C#N)C1 (centres unmarked) [Compound 280, N-[2-cyano-3-[3-[7-[2-[3-(2,4-dioxohexahydropyrimidin-1-yl)-5-fluoro-1-methyl-indazol-6-yl]-2-azaspiro[3.3]heptan-6-yl]-7-azaspiro[3.5]nonan-2-yl]-4-oxo-quinazolin-6-yl]oxy-4-fluoro-phenyl]-3-methoxy-azetidine-1-sulfonamide]

SMILES: CC(C)(C)c1nc(-c2cccc(NS(=O)(=O)c3c(F)cccc3F)c2F)c(-c2ccnc(N)n2)s1 [Dabrafenib, dabrafenib, reference compound]
T/C ([2]; 100 mg/kg): 26.6%
TGI ([2]; 100 mg/kg): 81.5%
Tumor Size on PG-D21 ([2]; 100 mg/kg): 588 ± 244 mm^3
Tumor volume ([2]; 100 mg/kg, day 0): 221 ± 10 mm^3
Tumor volume ([2]; 100 mg/kg, day 4): 288 ± 19 mm^3
Tumor volume ([2]; 100 mg/kg, day 7): 348 ± 33 mm^3
Tumor volume ([2]; 100 mg/kg, day 11): 383 ± 64 mm^3
Tumor volume ([2]; 100 mg/kg, day 14): 407 ± 122 mm^3
Tumor volume ([2]; 100 mg/kg, day 18): 454 ± 159 mm^3
Tumor volume ([2]; 100 mg/kg, day 21): 588 ± 244 mm^3

SMILES: COC(=O)N[C@@H](C)CNc1nccc(-c2cn(C(C)C)nc2-c2cc(Cl)cc(NS(C)(=O)=O)c2F)n1 [Encorafenib, encorafenib, reference compound]
T/C ([2]; 35 mg/kg): 10.6%
TGI ([2]; 35 mg/kg): 99.3%
Tumor Size on PG-D21 ([2]; 35 mg/kg): 235 ± 68 mm^3
Tumor volume ([2]; 35 mg/kg, day 0): 221 ± 10 mm^3
Tumor volume ([2]; 35 mg/kg, day 4): 260 ± 22 mm^3
Tumor volume ([2]; 35 mg/kg, day 7): 278 ± 17 mm^3
Tumor volume ([2]; 35 mg/kg, day 11): 238 ± 18 mm^3
Tumor volume ([2]; 35 mg/kg, day 14): 209 ± 31 mm^3
Tumor volume ([2]; 35 mg/kg, day 18): 196 ± 47 mm^3
Tumor volume ([2]; 35 mg/kg, day 21): 235 ± 68 mm^3
